For data set [1] the following is noted: in vivo, cited from earlier work.
For data set [2] the following is noted: humans; cited from earlier work.
The next data set can be described thus: physchem. The format is physicochemical. As to the method:
There are different types of cyclodextrins available. For the purpose of this patent application, the cyclodextrin can be one or more the following—alpha cyclodextrin (alpha CD), beta cyclodextrin (beta CD), gamma cyclodextrin (gamma CD), hydroxypropyl beta cyclodextrin (HPBCD), sulfobutyl ether beta cyclodextrin (SBEBCD), and randomly methylated beta cyclodextrin. […] The concentration of cyclodextrin in the samples ranged from 0 mg/mL to 12.5 mg/mL.

For data set [3] the following is noted: older adults, cited from earlier work.
For data set [4] the following is noted: rat, in vivo, po; cited from earlier work.

Structures are written as SMILES. Values after ≈ are worked out from the molar mass of the structure shown. Where two headings read alike, the source gives them in different places.

As for `CN(C)CCOC(C)(c1ccccc1)c1ccccn1` (stereo not shown) [Doxylamine succinate], the apparent oral clearance in data set [1] (po) is 217 mL/min. Besides, in data set [1], the elimination half-life was 10.1 h and the “mean Cmax (maximum blood concentration)” value is 0.099 µg/mL. Further, the median lethal dose in data set [2] is 50 to 500 mg/kg.
Consider `COc1ccc2[nH]cc(CCNC(C)=O)c2c1` [Melatonin], for which, in “physchem”, the “increase of solubility in water” value was approximately 60% and the “saturation solubility in water” value is given as 1.75 mg/mL. Further, in “physchem” (water, thermodynamic from solid, saturation solubility in water), the solubility (in general, the concentration that dissolves in the medium under given conditions) is approximately 1.75 mg/mL (≈ 7.53 mM). For the same compound, the Tmax (as a rule, the time from dosing to the highest level) in data set [3] (high dose (>2 mg)) is 1.5 h. The Tmax in data set [3] (low dose (<0.5 mg)) is 1.3 h. In data set [4], the LD50 result is on record as “over 3200 mg/kg”.

The values above are taken from US20160166543A1 (priority 2014, published 2016).
